{"source": "patent US6391843B1", "about": "“Chemical linker compositions” (Colgate-Palmolive Co., priority 1996, dated 2002)", "origin": "cited, not measured here", "system": "insect", "conditions": "hard surface cleaning composition"}
{"substance": "Methylneodecanamide [MNDA]", "values": [{"measurement": "amount of MNDA necessary to deposit to have one day efficacy", "value": "10 micrograms of MNDA per cm2"}]}
